In data set [1] the test system is HeLa cells. The experiment in a line: Cell viability assay (CellTiter-Glo 2.0). The data set is classed as cell-based. On the procedure: (§1) To assess the cytotoxicity of GP1 and GP2in vitro, cell viability assays were performed to determine the IC50 concentrations in three cancer cell lines (A2780, HeLa, and MCF-7). Table 2 summarizes the IC50 concentrations of both agents compared to those of cisplatin and carboplatin. […] For all cell lines, GP1 was less toxic than cisplatin but followed the same trend of highest toxicity in A2780 cells and least toxic in MCF-7 cells. GP1 releases cisplatin intracellularly, therefore the apparent difference in toxicity of the two is likely due to decreased cell permeability of GP1 caused by the Gd(III) complex. However, because GP1 is inert in the extracellular matrix, higher doses can be safely administered to account for the decreased cell permeability. […]
(§2) lines were grown in a humidified incubator at 37 °C and 5% CO2 and were harvested using 0.25% TrypLE. Cells were grown for 24 hours after plating before each experiment. All solutions were filtered through […] sterile filters before use.
(§3) Viability Assays. A2780, HeLa, and MCF-7 cells were plated at a density of 3,000 cells per well (100 µL) in an opaque white 96-well plate. Cells were dosed with 100 µL of solutions of GP1, GP2, cisplatin, or carboplatin in MEM and incubated for 48 hours (GP1 or cisplatin) or 72 hours (GP2 or carboplatin). After incubation, 50 µL CellTiter-Glo 2.0 (Promega, Madison, WI) was added to each well and the assay was carried out following the manufacturer’s protocol.
(§4) Luminescence of the wells was measured using a Synergy H1 microplate reader (BioTek, Winooski, VT). Viability was determined by comparing luminescence readings of the cells treated with agent to untreated control cells. […]

Data set [2] concerns A2780 cells. The experiment in a line: Cell viability assay (CellTiter-Glo 2.0). In kind it is cell-based. The protocol: as §1, §2, §3, §4
In data set [3] the test system is MCF-7 cells. The experiment in a line: Cell viability assay (CellTiter-Glo 2.0). The data set is classed as cell-based. On the procedure:
as §1, §2, §3, §4

The test system of data set [4] is HeLa cells. The experiment in a line: Concentration-dependent cell uptake, Gd and Pt by ICP-MS. In kind it is cell-based. Particulars: incubated near IC50 concentrations, 24 h. On the procedure:
(§5) Accumulation of GP1 and GP2 in cells was measured by concentration-dependent uptake experiments in A2780 and HeLa cells. Individual concentration-dependent uptake graphs are found in the ESI. ^†Table 3 compares the accumulation of Gd and Pt in A2780 and HeLa cells that were incubated with GP1, GP2, cisplatin, and carboplatin near their respective IC50 concentrations. For comparison, both cell lines were dosed with complex 1 at similar concentrations as GP1 and GP2. […] First, the accumulation of Gd in both cell lines for both agents is higher than what is typically considered the amount necessary for detection by MR (high μM concentrations).[32,33] […]
as §4
(§6) Aliquots of cell suspensions were mixed with the Guava ViaCount Reagent and allowed to stain for 5 minutes. The samples were vortexed for 20 seconds and cell count was determined via manual analysis using a Guava EasyCyte Mini PCA and ViaCount software. […] Performance of the instrument was assessed daily using Guava-Check Beads and the manufacturer’s protocol and Daily Check software.
(§7) Quantification of Gadolinium and Platinum with Inductively Coupled Plasma Mass Spectrometry. […]

In data set [5] the test system is A2780 cells. The data set is described as above. In kind it is cell-based. Particulars: incubated near IC50 concentrations, 24 h. The protocol:
as §5, §4, §6, §7

Data set [6] relates to HeLa cells. The experiment in a line: MR imaging of cell pellets at 7 T. In kind it is cell-based. Conditions: 6 h incubation, cisplatin 15 μM, 1 100 μM, GP1 60 μM, GP2 250 μM.
The test system of data set [7] is A2780 cells. The experiment in a line: MR imaging of cell pellets at 7 T. The data set is classed as cell-based. Particulars: A2780, 7 T, 6 h incubation; cisplatin 7.5 μM, 1 100 μM, GP1 30 μM, GP2 60 μM.
Data set [8] can be described thus: T1/T2 relaxivity measurements in PBS. The data set is classed as physicochemical. Conditions: 37 °C. On the procedure: The T1 relaxivity (r1) and T2 relaxivity (r2) of 1, GP1, and GP2 were measured at both low (1.41 T) and high (7 T) magnetic field strength in phosphate-buffered saline (PBS) to quantify how well they behave as MR contrast agents. […] The relaxivity values for 1 are well within the range of what is expected for a small molecule Gd(III) complex.[34] […] At 7 T, there was little change in r1 for both agents, while both r2 values increased, as expected. […]
solution. These capillaries were imaged using a Bruker PharmaScan 7 T MR imaging spectrometer (Bruker BioSpin, Billerica, MA, USA). T1 relaxation times were measured using a rapid-acquisition rapid-echo (RARE-VTR) T1-map pulse sequence with static TE (10 ms) and […]
parameters were as follows: field of view (FOV) = 25 x 25 mm2, matrix size (MTX) = 256 x 256, number of axial slices = 5, slice thickness (SI) = 1.0 mm, and averages (NEX) = 4. T1 analysis was carried out using the image sequence analysis tool in Paravision 5.0 pl2 software (Bruker, Billerica, MA, USA) with monoexponential curve-fitting of image intensities of selected regions of interest (ROIs) for each axial slice. […]
(§8) Fig. S2 Graph of r1 of (A) GP1 measured at 1.41 T (B) GP1 measured at 7 T (C) GP2 measured at 1.41 T
(D) GP2 measured at 7 T (E) 1 measured at 1.41 T (F) 1 measured at 7 T. All measurements were taken in PBS at 37 °C (G) 1 measured at 1.41 T with 5 mM GSH (H) GP1 measured at 1.41 T with 5 mM GSH and (I) GP2 measured at 1.41 T with 5 mM GSH.
(§9) Table S1. r1 of GP1, GP2, and 1 in PBS with 5 mM glutathione at 37 °C
(§10) GP1 (5 mM GSH) GP2 (5 mM GSH) 1 (5 mM GSH)

The nature of data set [9]: Relaxivity after incubation in 5 mM GSH in PBS. In kind it is physicochemical. Conditions: 1.41 T, PBS with 5 mM glutathione, 37 °C. The protocol: This is possibly due to an increase in the rotational correlation time (τR) or a change in the inner sphere hydration number (q) of Gd(III). The differences in relaxivity of GP1 and GP2 compared to 1 offers the possibility of monitoring reduction of the agents by MR at both high and low field strength. To test this, GP1, GP2, and 1 were incubated in 5 mM GSH in PBS and the relaxivity was measured (see ESI ^†). The relaxivity of each converged to the same value (r1 of 4.4, 4.5, and 4.6 mM^−1 s^−1 for 1, GP1, and GP2 respectively), indicating the same Gd(III) species was formed after reduction. The significant change in r1 upon reduction of GP1 and GP2 theoretically could be used to monitor intracellular reduction by MR. However, further testing needs to be done to determine if these agents are suitable for this application.
as §8
(D) GP2 measured at 7 T (E) 1 measured at 1.41 T (F) 1 measured at 7 T. All measurements were taken
in PBS at 37 °C (G) 1 measured at 1.41 T with 5 mM GSH (H) GP1 measured at 1.41 T with 5 mM GSH
and (I) GP2 measured at 1.41 T with 5 mM GSH.
as §9, §10

A short description of data set [10]: Aqueous solubility (qualitative). The data set is classed as physicochemical. Conditions: aqueous solutions / solvents.

As to `N.N.O=C([O-])C1(C(=O)[O-])CCC1.[Pt+2]` [Carboplatin, carboplatin], the IC50 worked out at 71.2 ± 4.9 µM in data set [1] (72 h incubation); 15.3 ± 5.8 µM in [2] (A2780, 72 h incubation); 124 ± 4 µM in data set [3] (MCF-7, 72 h incubation). Further, the results for the “Cell accumulation of Pt” value in [4] and in data set [5] were 0.60 ± 0.11 fmol per cell and 0.22 ± 0.02 fmol per cell, respectively.
For the compound `N.N.[Cl][Pt][Cl]` [Cisplatin, cisplatin], the “T1 of cell pellet” value in data set [6] was found to be 2236 ± 19 ms; in [7], 2216 ± 26 ms. The “Δ R1 (increase in R1 vs untreated control)” value in data set [6] is 2.7%; in [7], 4.6%. Besides, the IC50 in [1] (48 h incubation) amounted to 14.7 ± 1.2 µM; in data set [2] (A2780, 48 h incubation) it was 7.6 ± 2.3 µM; in data set [3] (MCF-7, 48 h incubation) it was 22.4 ± 2 µM.
As for `O=C([O-])CN1CCN(CCCCCC(=O)O)CCN(CC(=O)[O-])CCN(CC(=O)[O-])CC1.[Gd+3]` [Complex 1], the “r1 (T1 relaxivity)” value in data set [8] (1.41 T) was 4.1 mM⁻¹ s⁻¹; in data set [8] (7 T) it was 4.7 mM⁻¹ s⁻¹. For the same compound, the results for the “T1 of cell pellet” value in data set [6] and in data set [7] were 2178 ± 42 ms and 2170 ± 34 ms, respectively. Also, the results for the “Δ R1 (increase in R1 vs untreated control)” value in data set [6] and in data set [7] were 5.5% and 6.8%, respectively. Besides, the “r1 with 5 mM GSH” value in data set [9] was determined as 4.4 mM⁻¹ s⁻¹.
For the compound `[NH2][Pt]([NH2])([OH])([OH])([Cl])[Cl]` [Complex 2], the Solubility result in data set [10] is “insoluble in most solvents”.
The same measure, in the same setting: then `[NH2][Pt]1([NH2])([OH])([OH])[O]C(=O)C2(CCC2)C(=O)[O]1` [Complex 3], with “insoluble in most solvents”.

Source of the values: publication PMC8157322, “Gd(III)–Pt(IV) theranostic contrast agents for tandem MR imaging and chemotherapy” (Chemical Science, 2020).
